US9193687B2 (priority 2007, dated 2015)
Where “and” joins values, the source holds several entries; their conditions need not be identical. Identical values can stand only once.

Experiments:
[1] = tested on: Human mammary carcinoma (MX-1) tumor cells; assay: In vitro cytotoxicity, SRB assay, 72-hr incubation; details: Homo sapiens, 72 h, read-out: Cytotoxicity IC50, MX-1
CCRF-CEM/Taxol = assay: In vitro cytotoxicity, XTT assay, taxol-resistant subline; details: Homo sapiens, CCRF-CEM, 72 h, read-out: Cytotoxicity IC50, CCRF-CEM/Taxol
[2] = tested on: Human colon carcinoma HCT-116 cells; assay: cells; details: HCT-116, 72 h, read-out: Cytotoxicity IC50, HCT-116
[3] = tested on: human mammary carcinoma MX-1 xenograft; assay: Antitumor therapeutic effect against MX-1 xenograft in nude mice; format: in vivo; details: for Therapeutic effect: complete tumor remission (CR), mice with CR/total and day / Maximal body-weight loss (%) / Therapeutic effect: tumor relapse: i.v. injection; for Therapeutic effect: complete tumor remission (CR), mice with CR/total and day: treatment from Day 8, dose and schedule per compound as in Table 3 (30-150 mg/kg); for Maximal body-weight loss (%) / Therapeutic effect: tumor relapse: dose and schedule per compound as in Table 3; for Remark (dose tolerability): BO-1053 70 mg/kg Q2Dx5, BO-1063 and BO-1065 100 mg/kg QDx3, i.v.
Method: Athymic nude mice bearing the nu/nu gene were obtained from NCI, Frederick, Md. and used for all human tumor xenografts. Male nude mice 6 weeks or older weighing 20-24 g or more were used. Compounds were administered via the tail vein for i.v. injection or infusion as described previously.^64 A typical formulation for chemotherapeutic studies for each drug was dissolved in DSMO to make a 25 mg/ml fresh solution, 0.4 ml of this solution was mixed with 0.3 ml of Tween 80, plus 1.3 ml to make 2 ml of 5 mg/ml solution. Bolus injection volume was 0.1-0.2 ml per mouse. Tumor volume was assessed by measuring length×width×height (or width) by using a caliper. For tumor-bearing nude mice during the course of the experiment, the body weight refers to total weight minus the weight of the tumor. All animal studies were conducted in accordance with the guidelines for the National Institute of Health Guide for the Care and Use of Animals and the protocol approved by the Institutional Animal Care and Use Committee.
The therapeutic effects of a drug against human tumor xenografts in nude mice, under the optimal therapeutic conditions but without any lethality due to drug toxicity, the following degrees of therapeutic effects are defined and calculated by the following formula: […]
where • T0 is the initial tumor size (in mm^3) at beginning of drug treatment; • Tc is tumor size of untreated control group on a given date; and • Tx is tumor size of the drug treated group on a given date.
[formula] • Tumor disappearance (complete remission or CR) is defined by the effect where • [Tx=0] for a period of time (in days) for a proportion of animals (NCR/N), where • N is the total number of animals in the group, and NCR is the number of mice in the group that achieved CR. • Tumor relapse is quantitatively calculated by • [The Day tumor relapsed (Drelp)—The Day CR achieved (DCR)] (Eq. 3) for a proportion of animals (Nrelp/N) where N is the total number of animals in the group, and Nrelp is the number of the mice in the group that relapsed. • The log cell kill (LCK) of the tumor tissue after a given chemotherapy that reached CR is estimated by: LCK=log [2^(Tumor remission in days/Tumor doubling time in days)] (Eq. 4)
Athymic nude mice bearing the nu/nu gene were used for human breast tumor MX-1 xenograft (FIGS. 3 and 4) and human brain glioma U87 GM xenograft (FIG. 5). Nude mice were obtained from National Cancer Institute, Frederick, Md. Male mice 6 weeks old or older weighing 22 g or more were used for experiments with subcutaneous tumor inoculation as described previously.^67 Drug was administrated via the tail vein by iv injection. Tumor volumes were assessed by measuring length×width×height (or width) by using caliper. Vehicle used was 20 μL DMSO in 180 μL saline. All animal studies were conducted in accordance with the guidelines of the U.S. National Institutes of Health Guide for the Care and Use of Animals and the protocol approved by the Institutional Animal Care and Use Committee.

[4] = tested on: CCRF-CEM human lymphoblastic leukemia cells; assay: cells; details: 72 h, read-out: Cytotoxicity IC50, CCRF-CEM

| SMILES | IC50 [1] [nM] | IC50 (CCRF-CEM/Taxol) [nM] | IC50 [2] [nM] | Therapeutic effect: complete tumor remission (CR), mice with CR/total and day [3] | Maximal body-weight loss (%) [3] | Therapeutic effect: tumor relapse [3] | IC50 [4] [nM] | Remark (dose tolerability) [3] |
| --- | --- | --- | --- | --- | --- | --- | --- | --- |
| CC(=O)O[C@H]1C(=O)[C@@]2(C)[C@H]([C@H](OC(=O)c3ccccc3)[C@]3(O)C[C@H](OC(=O)[C@H](O)[C@@H](NC(=O)c4ccccc4)c4ccccc4)C(C)=C1C3(C)C)[C@]1(OC(C)=O)CO[C@@H]1C[C@@H]2O [Taxol, reference compound] | 40 | 430 |  |  |  |  |  |  |
| Cc1cccc2c(Nc3cc(CO)cc(NC(=O)Nc4ccc(N(CCCl)CCCl)cc4)c3)c3ccccc3nc12 [BO-1050, 1-{4-[bis(2-chloroethyl)amino]phenyl}-3-[3-hydroxymethyl-5-(4-methylacridin-9-ylamino)phenyl]urea] | 120 | 390 | 260 | achieved CR in parts of the mice and 2/2 CR on D16, 18 | 9% | No relapse on D26 |  |  |
| Cc1ccc(NC(=O)Nc2ccc(N(CCCl)CCCl)cc2)cc1Nc1c2cccc(C)c2nc2c(C(=O)NCCN(C)C)cccc12 [BO-1053, 9-[5-(3-{4-[bis(2-chloroethyl)amino]phenyl}ureido)-2-methyl-phenylamino]-5-methyl-acridine-4-carboxylic acid (2-dimethylaminoethyl)amide] | 60 | 180 | 60 | achieved complete tumor remission |  |  | 10 | Too high dose |
| Cc1ccc(NC(=O)Nc2ccc(N(CCCl)CCCl)cc2)cc1Nc1c2ccccc2nc2c(C)cccc12 [BO-1149] | 590 | 20 | 160 |  |  |  | 10 |  |
| O=C(Nc1ccc(N(CCCl)CCCl)cc1)Nc1cc(CO)cc(Nc2c3ccccc3nc3ccccc23)c1 [BO-1037, 1-[3-(acridin-9-ylamino)-5-hydroxymethylphenyl]-3-{4-[bis(2-chloroethyl)amino]phenyl}urea] | 370 | 17100 | 220 | achieved CR in parts of the mice and 2/3 CR on D23, 25 | 12% | 2/3 relapsed on D40, 40 | 60 |  |
| O=C(Nc1ccc(N(CCCl)CCCl)cc1)Nc1c2ccccc2nc2ccccc12 [BO-1034, 1-acridin-9-yl-3-{4-[bis(2-chloroethyl)amino]phenyl}urea] | 810 | 390 | 900 |  |  |  | 230 |  |
| CC[C@]1(O)C[C@@H]2CN(CCc3c([nH]c4ccccc34)[C@@](C(=O)OC)(c3cc4c(cc3OC)N(C)[C@H]3[C@@](O)(C(=O)OC)[C@H](OC(C)=O)[C@]5(CC)C=CCN6CC[C@]43[C@@H]65)C2)C1 [Vinblastine, reference compound] |  | 80 |  |  |  |  |  |  |
| Cc1ccc(Nc2c3ccccc3nc3ccccc23)cc1NC(=O)Oc1ccc(N(CCCl)CCCl)cc1 [BO-1171] | 210 | 220 | 430 |  |  |  | 80 |  |
| CCOC(=O)Nc1cc(COC(=O)Oc2ccc(N(CCCl)CCCl)cc2)cc(Nc2c3ccccc3nc3ccccc23)c1 [BO-1065, carbonic acid 3-(acridin-9-yl-amino)-5-ethoxycarbonylaminobenzyl ester 4-[bis(2-chloroethyl)amino]phenyl ester] | 90 | 510 | 640 |  |  |  |  | Too high dose |
| O=C(NNc1cc(-c2ccccc2)nc2ccccc12)Nc1ccc(N(CCCl)CCCl)cc1 [BO-1393] | 1780 | 910 | 1260 |  |  |  | 580 |  |
| Cc1cc(NNC(=O)Nc2ccc(N(CCCl)CCCl)cc2)c2cc(N(C)C)ccc2n1 [BO-1242] | 280 | 4190 | 150 |  |  |  | 60 |  |
| O=C(Nc1ccc(N(CCCl)CCCl)cc1)Nc1cccc(Nc2cc(-c3ccccc3)nc3ccccc23)c1 [BO-2295] |  |  |  |  |  |  | 1860 |  |
| Cc1cc(NNC(=O)Nc2ccc(N(CCCl)CCCl)cc2)c2ccccc2n1 [BO-1233, N-{4-[bis(2-chloroethyl)amino]phenyl}-2-(2-methyl-4-quinolinyl)hydrazinecarboxamide] | 360 | 1830 | 380 |  |  |  | 120 |  |
| COc1ccc(Nc2c3ccccc3nc3c(C)cccc23)cc1NC(=O)Nc1ccc(N(CCCl)CCCl)cc1 [BO-1154] | 370 | 10 | 70 |  |  |  | 10 |  |
| Cc1ccc(Nc2c3ccccc3nc3c(C)cccc23)cc1NC(=O)Oc1ccc(N(CCCl)CCCl)cc1 [BO-1064, [2-methyl-5-(4-methylacridin-9-ylamino)phenyl]-carbamic acid 4-[bis(2-chloroethyl)amino]phenyl ester] | 290 | 170 | 610 | achieved complete tumor remission and 1/1 CR on D22 | Died of |  | 130 |  |
| O=C(NNc1cc(-c2ccccc2)nc2cc3c(cc12)OCO3)Nc1ccc(N(CCCl)CCCl)cc1 [BO-1391] | 1020 | 570 | 2020 |  |  |  | 260 |  |
| O=C(Nc1cc(CO)cc(Nc2c3ccccc3nc3ccccc23)c1)Oc1ccc(N(CCCl)CCCl)cc1 [BO-1062, [3-(acridin-9-ylamino)-5-hydroxymethylphenyl]carbamic acid 4-[bis(2-chloroethyl)amino]phenyl ester] | 100 | 140 | 570 | achieved complete tumor remission and 1/1 CR on D22 | 17% |  | 80 |  |
| O=C(Nc1ccc(Nc2cc(-c3ccccc3)nc3ccccc23)cc1)Nc1ccc(N(CCCl)CCCl)cc1 [BO-2294] |  |  |  |  |  |  | 3010 |  |
| Cc1cc(NC(=O)Nc2ccc(N(CCCl)CCCl)cc2)c2cc(N(C)C)ccc2n1 [BO-1231] | 180 | 310 | 300 |  |  |  | 110 |  |
| COc1cc(NC(=O)Oc2ccc(N(CCCl)CCCl)cc2)cc(Nc2c3ccccc3nc3ccccc23)c1 [BO-1066, [3-(acridin-9-ylamino)-5-methoxyphenyl]carbamic acid 4-[bis(2-chloroethyl)amino]phenyl ester] | 340 | 310 | 1710 | achieved complete tumor remission and 1/1 CR on D22 | 13% |  | 210 |  |
| COc1ccc(Nc2c3ccccc3nc3ccccc23)cc1NC(=O)Oc1ccc(N(CCCl)CCCl)cc1 [BO-1172] | 180 | 160 | 190 |  |  |  | 90 |  |
| COc1ccc2nc(C)cc(NNC(=O)Nc3ccc(N(CCCl)CCCl)cc3)c2c1 [BO-1228, N-{4-[bis(2-chloroethyl)amino]phenyl}-2-(6-methoxy-2-methyl-4-quinolinyl)hydrazinecarboxamide] | 260 | 1540 | 260 |  |  |  | 200 |  |
| COc1ccc(Nc2c3ccccc3nc3c(C)cccc23)cc1NC(=O)Oc1ccc(N(CCCl)CCCl)cc1 [BO-1213] | 140 | 30 |  |  |  |  | 20 |  |
| COc1ccc(Nc2c3ccccc3nc3ccccc23)cc1NC(=O)Nc1ccc(N(CCCl)CCCl)cc1 [BO-1148] | 1200 | 30 | 260 |  |  |  | 10 |  |
